Read-outs that look alike come from different tables or passages of the source.
What was measured:
[1] = tested on: YAMC, mp53, Ras and mp53/Ras transformed cells; experiment: Immunoblot of autophagy markers p62 and LC3 after drug treatment; format: cell-based, murine; conditions: 10 mM 3-methyladenine (3MA) for 24 hrs
Experimental: To identify if the p62 degradation and LC3 conversion is specifically due to autophagy YAMC, mp53, Ras, and mp53/Ras cells were treated with 3-methyladenine, a specific pharmacologic inhibitor of autophagosome formation (FIG. 4.3).
YAMC, vector, mp53, Ras, and mp53/Ras cells were cultured for two days at 39 C in RPMI with 10% FBS medium and gentamicin in collagen-I coated 15 cm dishes. […] Protein concentration was quantified using Bradford reagent (BioRad) and a Genesys 1 0UV spectrophotometer (Spectronic Unicam). […] Proteins were detected with primary antibodies at the following dilutions in PBST with 5% milk at 4 C overnight: HA-tagged Plac8 —1:1000 dilution of HA antibody (Roche), —Tubulin—1:1000 of—Tubulin antibody (Santa Cruz), Plac8 —1:500 of Plac8 antibody (PRF&L, Inc.), Lamp2 —1:5000 of Lamp2 antibody (Abcam), Rab7 —1:1000 Rab7 antibody (Sigma), LC3 —1:2000 of LC3B antibody (Sigma), RhoA—1:1000 RhoA antibody (Santa Cruz), Cathepsin D—1:1000 Cathepsin D antibody (Santa Cruz), p62 —1:5000 of p62 antibody (PROGEN), 3× Flag-tagged proteins—1:1000 dilution of 3× Flag antibody and 1:2500 of HRP-conjugated 3× Flag antibody (Sigma), Rab5a—1:1000 dilution of Rab5 antibody (Abcam), phosphop70S6K (Thr389)—1:1000 dilution of phospho-p70S6K (Thr389) antibody (Cell Signaling), p70S6K—1:1000 dilution of p70S6K antibody (Cell Signaling), Atg12—1:250 Atg12 antibody (Sigma). […]

[2] = tested on: lymphoma, colon cancer, lung cancer, and pancreatic cancer cells; conditions: prior studies referred to in the text, cited from earlier work
[3] = tested on: mp53/Ras transformed cells and CAPAN-2 cells; experiment: Immunocompromised mouse tumorigenicity assay, cells expressing autophagy modulators; format: in vivo; conditions: cells expressing the protein or shRNA vs vector control; 5×10^5 cells per injection; 4 weeks mp53/Ras, 5 weeks CAPAN-2
Experimental: To determine whether cooperative up-regulation of autophagy is required for tumorigenesis Atg12, a gene involved in autophagosome formation, was knocked-down using two independent constructs in mp53/RasV12 and Capan-2 cells. In addition, a genetic rescue experiment was performed by introducing a shRNA resistant form of ATG12 into these cell backgrounds to test for ATG12 specificity of the observed effects. Tumor formation was inhibited by Atg12 KD in both mp53/Ras and CAPAN-2 cell lines and was rescued by expression of the exogenous shRNA resistant Atg12 (FIG. 4.5a, 4.5c).
Cells were cultured on 15 cm dishes for two days without selective antibiotics at 39 C for mp53/Ras cells and at 37 C for HT-29, CAPAN-2, PANC-1, and 5 Panc10.05. Cells were plated at the following densities: mp53/Ras—7.5×10^5, HT-29 —1.5×10^6, CAPAN-2 —4×10^6, PANC—4×10^6, and PANC 10.05—2×10^6. Cells were trypsinized, counted and re-suspended in RPMI medium lacking supplements for mp53/Ras, CAPAN-2, and Panc10.05, and DMEM lacking supplements for HT-29 and PANC-1 at a density of 5×10^5/100 ul for mp53/Ras and CAPAN-2 cells, 1.25×10^5/100 ul for HT-29 cells, 5×10^6/100 ul for PANC-1, 2×10^6/100 ul for Panc10.05. […] Tumor volume was measured every week for 4 weeks for mp53/Ras and HT-29 cells, 5 weeks for CAPAN-2 cells, and 6 weeks for PANC-1.

[4] = tested on: mp53/Ras transformed cells; experiment: Lamp2/GFP-LC3 colocalization (autophagosomal/lysosomal fusion), mp53/Ras cells; format: cell-based, murine; conditions: nutrient starved in HBSS 15 minutes
From the text: The Plac8 KD dependent accumulation of autophagosomes and autophagosomal biochemical markers can be due to an induction of autophagosome formation (on-rate) or inhibition in autophagosome clearance via autophagosomal/lysosomal fusion (off-rate). […] To explore if Plac8 is required for autophagosomal/lysosmal fusion a GFP-LC3 fusion protein was expressed to label autophagosomes and immunostained for Lamp2, a lysosomal marker. Co-localization of GFP-LC3 and Lamp2 indicates the formation of an autolysosome, or the completion of autophagosomal/lysosomal fusion.
Cells were plated onto collagen-1 coated 22 mm glass coverslips (BD Biosciences) in 6 well plates at 5×10^4 cells per well. […] Cells were analyzed and imaged using a Leica inverted confocal microscope (Lieca).
GFP-LC3 expressing cells were fixed, stained, mounted, and imaged by the methods described in previous section titled Immunofluorescent staining of cells. To quantify GFP-LC3 punctae images were analyzed using the ImageJ plug-in Watershed Segmentation. […] The resulting image was quantified by measuring the mean green and blue signals per image and dividing the blue signal by the total green signal to get the amount of punctae per total GFP-LC3 expressed in the cell. […] To quantify GFP-LC3 colocalization images were analyzed using the ImageJ plug-in Colocalization Finder. […]

[5] = tested on: mp53/Ras transformed cells and CAPAN-2 cells; experiment: Immunoblot of p62 and LC3 in cells expressing autophagy modulators; format: cell-based; conditions: cells expressing the protein vs vector control
From the text: Thus, the effects of Plac8 KD on both tumor formation and autophagy can be suppressed by constitutive activation of Rab7.
Moreover, the molecular machinery employed in autophagosomal/lysosomal fusion, such as Rab7, is required for endosomal/lysosomal fusion, which is also required for tumor formation in some cancers.
To determine if the Plac8 KD-induced loss of tumor formation is specifically due to a loss of autophagy completion, Atg12, a gene required for autophagosomal formation, was overexpressed in Plac8 KD cells.
YAMC, vector, mp53, Ras, and mp53/Ras cells were cultured for two days at 39 C in RPMI with 10% FBS medium and gentamicin in collagen-I coated 15 cm dishes. HT-29, CAPAN-2, PANC-1 and Panc 10.05 cells were cultured for two days at 37 C in maintenance media without selective antibiotics on 15 cm dishes. […] Protein concentration was quantified using Bradford reagent (BioRad) and a Genesys 1 0UV spectrophotometer (Spectronic Unicam). […]

## Cn1cnc(N)c2ncnc1-2 [3-methyladenine]
[1]
  p62 and LC3 protein levels: p62 and LC3-I increase
[1]; listed as 3MA
  p62 and LC3 protein levels: Accumulation of p62 and LC3

## CO/C1=C\C(C)=C\[C@@H](C)[C@@H](O)[C@@H](C)C/C(C)=C/C=C/[C@H](OC)[C@@H]([C@@H](C)[C@@H](O)[C@H](C)[C@@]2(O)C[C@@H](O)[C@H](C)[C@@H](C(C)C)O2)OC1=O [Bafilomycin A1]
[2]
  tumor formation / tumor growth: inhibits tumor growth
[2]; listed as bafilomycin A1
  tumor formation / tumor growth: tumor inhibitory
[2]; listed as baflomycin A1
  tumor formation / tumor growth: effective at inhibiting tumor formation

## Rab7 DA: 3× Flag-tagged Rab7 Q67L dominant active mutant, activates autophagosomal/lysosomal fusion
[3]
  tumor formation in nude mice: inhibits tumor formation

## Rab7 DN: 3× Flag-tagged Rab7 T22N dominant negative mutant, inhibits autophagosomal/lysosomal fusion
[4]
  inhibition of GFP-LC3/Lamp2 colocalization: 74%
[5]
  p62 and LC3 protein levels: accumulation of p62 and LC3
[3]
  tumor formation in nude mice: inhibition of tumor formation

From US20130184223A1, “METHODS AND COMPOSITIONS RELATED TO MODULATING AUTOPHAGY” (UNIVERSITY OF ROCHESTER, priority 2010, published 2013)
